{"source": "paper PMC8765048", "about": "(JCI Insight, 2022)", "key": {"[1]": {"test_system": "A549 cells", "assay": "Phospholipidosis imaging (NBD-PE fluorescence)", "conditions": "24 h, sangivamycin up to 5 μM, melperone 10 μM, amiodarone positive control"}, "[2]": {"assay": "24-hour plasma pharmacokinetics in CD-1 laboratory mice", "assay_type": "in vivo, mouse", "conditions": "CD-1 mice, sangivamycin i.p. 60 mg/kg; not in control mice", "method": "We next evaluated the 24-hour pharmacokinetics (PK) of sangivamycin in CD-1 laboratory mouse plasma. Sangivamycin’s plasma concentrations increased following i.p. injection of 60 mg/kg to a peak at 2 hours, then decreased over 6 or 8 hours, and remained virtually unchanged up to 24 hours after dosing. […] Graphing plasma concentration versus time produced an area under the curve to the last time point with values of 632 ± 66.6 h•ng/mL for males and 833 ± 53.9 h•ng/mL for females. […] Our data corroborate historical PK studies in mice with ^3H-labeled sangivamycin performed at the NCI in 1974 ([20]). In these studies, free nucleoside and mono-, di-, and triphosphate forms of sangivamycin were detected in blood, urine, and multiple tissues (e.g., heart, liver, brain, spleen, and kidneys) following i.p. injection of 8 mg/kg. The studies established that sangivamycin was phosphorylated after transportation into cells. In liver, heart, and brain, the predominant form of sangivamycin was sangivamycin 5′-monophosphate (SMP). […] Therefore, we determined the level of SMP in blood in our PK study using a published liquid chromatography–tandem mass spectrometry (LC-MS/MS) method with a lower limit of quantification of 1 ng/mL ([33]). Using this method, we detected SMP in the plasma of dosed mice but not control mice (Supplemental Figure 9B). The apparent levels of SMP increased in blood during the 24 hours of this study. There also was possible presence of a diphosphate metabolite of sangivamycin, but it was detected only in the plasma samples taken 24 hours after dosing."}, "[3]": {"test_system": "SARS-CoV-2 WA1", "assay": "microbe, parasite or virus in culture", "assay_type": "cell-based", "conditions": "for IC50: read-out: IC50"}, "[4]": {"test_system": "SARS-CoV-2 B.1.427 (Epsilon)", "assay": "microbe, parasite or virus in culture", "assay_type": "cell-based", "conditions": "Severe acute respiratory syndrome coronavirus 2, Calu-3, 24 h"}, "[5]": {"test_system": "SARS-CoV-2 P.2 (Zeta)", "assay": "microbe, parasite or virus in culture", "assay_type": "cell-based", "conditions": "Severe acute respiratory syndrome coronavirus 2, Vero C1008, 24 h"}, "[6]": {"test_system": "SARS-CoV-2 B.1.617.2 (Delta)", "assay": "microbe, parasite or virus in culture", "assay_type": "cell-based", "conditions": "Severe acute respiratory syndrome coronavirus 2, VeroE6/TMPRSS2, 18 h"}, "[7]": {"test_system": "SARS-CoV-2 B.1.429 (Epsilon)", "assay": "microbe, parasite or virus in culture", "assay_type": "cell-based", "conditions": "Severe acute respiratory syndrome coronavirus 2, Calu-3, 24 h"}, "[8]": {"test_system": "SARS-CoV-2", "assay": "Combinatorial sangivamycin/remdesivir efficacy testing, Vero E6 cells", "assay_type": "cell-based", "conditions": "Severe acute respiratory syndrome coronavirus 2, Vero C1008; read-out: IC50 (nM), S:R by [Remdesivir]"}, "[9]": {"test_system": "SARS-CoV-2 B.1.1.7 (Alpha)", "assay": "microbe, parasite or virus in culture", "assay_type": "cell-based", "conditions": "Severe acute respiratory syndrome coronavirus 2, Calu-3, 24 h"}, "[10]": {"test_system": "SARS-CoV-2 B.1.617.2 (Delta)", "assay": "microbe, parasite or virus in culture", "assay_type": "cell-based", "conditions": "Severe acute respiratory syndrome coronavirus 2, Calu-3, 24 h"}, "[11]": {"test_system": "SARS-CoV-2 P.2 (Zeta)", "assay": "microbe, parasite or virus in culture", "assay_type": "cell-based", "conditions": "Severe acute respiratory syndrome coronavirus 2, Calu-3, 24 h"}, "[12]": {"test_system": "SARS-CoV-2 P.1 (Gamma)", "assay": "microbe, parasite or virus in culture", "assay_type": "cell-based", "conditions": "Severe acute respiratory syndrome coronavirus 2, Calu-3, 24 h"}, "[13]": {"test_system": "SARS-CoV-2 B.1.351 (Beta)", "assay": "microbe, parasite or virus in culture", "assay_type": "cell-based", "conditions": "Severe acute respiratory syndrome coronavirus 2, Vero C1008, 18 h"}, "[14]": {"conditions": "laboratory mouse liver, lung, and kidney microsomes; cited from earlier work"}, "[15]": {"test_system": "SARS-CoV-2 B.1.1.7 (Alpha)", "assay": "microbe, parasite or virus in culture", "assay_type": "cell-based", "conditions": "Severe acute respiratory syndrome coronavirus 2, Vero C1008, 24 h"}, "[16]": {"test_system": "SARS-CoV-2 WA1", "assay": "microbe, parasite or virus in culture", "assay_type": "cell-based", "conditions": "Severe acute respiratory syndrome coronavirus 2, Caco-2, 96 h"}, "[17]": {"test_system": "SARS-CoV-2 B.1.351 (Beta)", "assay": "microbe, parasite or virus in culture", "assay_type": "cell-based", "conditions": "Severe acute respiratory syndrome coronavirus 2, Calu-3, 48 h"}, "[18]": {"test_system": "SARS-CoV-2 B.1.429 (Epsilon)", "assay": "microbe, parasite or virus in culture", "assay_type": "cell-based", "conditions": "Severe acute respiratory syndrome coronavirus 2, Vero C1008, 48 h"}, "[19]": {"test_system": "SARS-CoV-2 B.1.427 (Epsilon)", "assay": "microbe, parasite or virus in culture", "assay_type": "cell-based", "conditions": "Severe acute respiratory syndrome coronavirus 2, Vero C1008, 24 h"}, "[20]": {"conditions": "mice; cited from earlier work"}, "[21]": {"test_system": "SARS-CoV-2", "assay": "Combinatorial sangivamycin/remdesivir efficacy testing, Caco-2 cells", "assay_type": "cell-based", "conditions": "Severe acute respiratory syndrome coronavirus 2, Caco-2; read-out: IC50 (nM), S:R by [Remdesivir]"}, "[22]": {"test_system": "SARS-CoV-2", "assay": "Combinatorial sangivamycin/remdesivir efficacy testing, Calu-3 cells", "assay_type": "cell-based", "conditions": "Severe acute respiratory syndrome coronavirus 2, Calu-3; read-out: IC50 (nM), S:R by [Remdesivir]"}, "[23]": {"test_system": "SARS-CoV-2 WA1", "assay": "microbe, parasite or virus in culture", "assay_type": "cell-based", "conditions": "Severe acute respiratory syndrome coronavirus 2, Calu-3, 72 h"}, "[24]": {"test_system": "SARS-CoV-2 P.1 (Gamma)", "assay": "microbe, parasite or virus in culture", "assay_type": "cell-based", "conditions": "Severe acute respiratory syndrome coronavirus 2, Vero C1008, 24 h"}, "[25]": {"test_system": "COVID-19 higher risk individuals", "design": "method as in earlier work", "conditions": "phase III clinical trial with 1433 patients, FDA advisory committee analysis; cited from earlier work"}, "[26]": {"conditions": "Severe acute respiratory syndrome coronavirus 2, Vero C1008, 48 h"}}, "note": "Where two headings read alike, the source gives them in different places.", "data": [{"smiles": "CCCCc1oc2ccccc2c1C(=O)c1cc(I)c(OCCN(CC)CC)c(I)c1", "note": "[Amiodarone, reference compound]", "values": [{"measurement": "NBD-PE fluorescence (phospholipidosis)", "setting": "[1]", "value": "induced NBD-PE fluorescence"}]}, {"smiles": "NC(=O)c1cn(C2OC(COP(=O)(O)O)C(O)C2O)c2ncnc(N)c12", "note": "(centres unmarked) [SMP, sangivamycin 5′-monophosphate]", "values": [{"measurement": "presence in plasma of sangivamycin-dosed mice (LC-MS/MS)", "setting": "[2]", "value": "detected"}]}, {"smiles": "N#C[C@@]1(c2ccc3c(N)ncnn23)O[C@H](CO)[C@@H](O)[C@H]1O", "note": "[GS-441524, reference compound]", "values": [{"measurement": "IC50 fold higher than the IC50 of sangivamycin", "setting": "[3]", "value": 27, "unit": "fold"}, {"measurement": "IC50", "setting": "[3]; Severe acute respiratory syndrome coronavirus 2, Vero C1008", "value": "1420 ± 20", "unit": "nM"}]}, {"smiles": "CCC(CC)COC(=O)[C@H](C)N[P@](=O)(OC[C@H]1O[C@@](C#N)(c2ccc3c(N)ncnn23)[C@H](O)[C@@H]1O)Oc1ccccc1", "note": "[Remdesivir, remdesivir, reference compound]", "values": [{"measurement": "IC50", "setting": "[4]", "value": 1500, "unit": "nM"}, {"measurement": "IC90", "setting": "[4]", "value": 6.09, "unit": "µM"}, {"measurement": "IC50", "setting": "[5]", "value": 1560, "unit": "nM"}, {"measurement": "IC90", "setting": "[5]", "value": 4.91, "unit": "µM"}, {"measurement": "IC50", "setting": "[6]", "value": 5.46, "unit": "µM"}, {"measurement": "IC90", "setting": "[6]", "value": "> 10", "unit": "µM"}, {"measurement": "IC50", "setting": "[7]", "value": 2800, "unit": "nM"}, {"measurement": "IC90", "setting": "[7]", "value": "> 10", "unit": "µM"}, {"measurement": "IC50", "setting": "[8]", "value": 2320, "unit": "nM"}, {"measurement": "IC50", "setting": "[9]", "value": 3.18, "unit": "µM"}, {"measurement": "IC90", "setting": "[9]", "value": "> 10", "unit": "µM"}, {"measurement": "IC50", "setting": "[10]", "value": 2910, "unit": "nM"}, {"measurement": "IC90", "setting": "[10]", "value": "> 10", "unit": "µM"}, {"measurement": "IC50", "setting": "[11]", "value": 791, "unit": "nM"}, {"measurement": "IC90", "setting": "[11]", "value": 4.8, "unit": "µM"}, {"measurement": "IC50", "setting": "[12]", "value": 1700, "unit": "nM"}, {"measurement": "IC90", "setting": "[12]", "value": 6.27, "unit": "µM"}, {"measurement": "IC50", "setting": "[13]", "value": 2370, "unit": "nM"}, {"measurement": "IC90", "setting": "[13]", "value": 4.03, "unit": "µM"}, {"measurement": "IC90", "setting": "[3]; [26]", "value": 3.53, "unit": "µM"}, {"measurement": "IC50", "setting": "[3]; [26]", "value": 2270, "unit": "nM"}, {"measurement": "time within which remdesivir and its monophosphate are lost", "setting": "[14]", "value": "≤ 10", "unit": "min"}, {"measurement": "IC50", "setting": "[15]", "value": 1420, "unit": "nM"}, {"measurement": "IC90", "setting": "[15]", "value": 3.68, "unit": "µM"}, {"measurement": "IC50", "setting": "[16]", "value": 3, "unit": "nM"}, {"measurement": "IC90", "setting": "[16]", "value": 13, "unit": "nM"}, {"measurement": "IC50", "setting": "[17]", "value": 951, "unit": "nM"}, {"measurement": "IC90", "setting": "[17]", "value": 2290, "unit": "nM"}, {"measurement": "IC50", "setting": "[18]", "value": 1770, "unit": "nM"}, {"measurement": "IC90", "setting": "[18]", "value": 2470, "unit": "nM"}, {"measurement": "IC50", "setting": "[19]", "value": 1270, "unit": "nM"}, {"measurement": "IC90", "setting": "[19]", "value": 3.28, "unit": "µM"}, {"measurement": "half-lives (free nucleoside and monophosphate forms)", "setting": "[20]", "value": "about 5 hours"}, {"measurement": "IC50", "setting": "[21]", "value": 17.6, "unit": "nM"}, {"measurement": "IC50", "setting": "[22]", "value": 4470, "unit": "nM"}, {"measurement": "IC50", "setting": "[23]", "value": 4.49, "unit": "µM"}, {"measurement": "IC90", "setting": "[23]", "value": 8.19, "unit": "µM"}, {"measurement": "IC50", "setting": "[24]", "value": 702, "unit": "nM"}, {"measurement": "IC90", "setting": "[24]", "value": 3.68, "unit": "µM"}]}, {"smiles": "CC(C)C(=O)OC[C@H]1O[C@@H](n2ccc(NO)nc2=O)[C@H](O)[C@@H]1O", "note": "[Molnupiravir]", "values": [{"measurement": "reduction of risk for hospitalization and death", "setting": "[25]", "value": 30, "unit": "%"}]}]}
